Experimental data published in PubChem BioAssay (NCI).
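Dose response: 5 concentrations. Exposure: 48 h. Format: 96-well plates. Endpoint: linear interpolation; highest concentration if not reached. The concentration for full growth arrest is given as TGI.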

Tests used:
Experiment in all cases: growth of human tumour cells (NCI), 48 h
786-0 renal = system: 786-0 renal
SK-MEL-28 melanoma = system: SK-MEL-28 melanoma
MOLT-4 leukemia = system: MOLT-4 leukemia
M14 melanoma = system: M14 melanoma
RPMI-8226 leukemia = system: RPMI-8226 leukemia
HOP-62 NSCLC = system: HOP-62 NSCLC
CAKI-1 renal = system: CAKI-1 renal
UACC-62 melanoma = system: UACC-62 melanoma
PC-3 prostate = system: PC-3 prostate
KM12 colon = system: KM12 colon
MALME-3M melanoma = system: MALME-3M melanoma
SK-OV-3 ovarian = system: SK-OV-3 ovarian
SF-268 CNS = system: SF-268 CNS
EKVX NSCLC = system: EKVX NSCLC
IGROV1 ovarian = system: IGROV1 ovarian
SN12C renal = system: SN12C renal
T-47D breast = system: T-47D breast
MCF7 breast = system: MCF7 breast
CCRF-CEM leukemia = system: CCRF-CEM leukemia
SF-295 CNS = system: SF-295 CNS
A549 NSCLC = system: A549 NSCLC
HCT-15 colon = system: HCT-15 colon
OVCAR-8 ovarian = system: OVCAR-8 ovarian
SW-620 colon = system: SW-620 colon
SR leukemia = system: SR leukemia
SNB-75 CNS = system: SNB-75 CNS
NCI-H23 lung = system: NCI-H23 lung
HCC-2998 colon = system: HCC-2998 colon
RXF 393 renal = system: RXF 393 renal
TK-10 renal = system: TK-10 renal
MDA-N = system: MDA-N
MDA-MB-231 breast = system: MDA-MB-231 breast
SK-MEL-5 melanoma = system: SK-MEL-5 melanoma

Measured: TGI

CC1OC(c2ccccc2)=CC(OCc2ccccc2)[C@H]1OCc1ccccc1 (stereo partly drawn)
> 10 µM: all assays above
